Test results as given in US20250195513A1, “DEGRADATION OF IRAK4 BY CONJUGATION OF IRAK4 INHIBITORS WITH E3 LIGASE LIGAND AND METHODS OF USE” (BeiGene, Ltd., priority 2022, published 2025).

Legend:
Type in all cases: cell-based
IRAK4 [1] = target: T1, IRAK4 (Homo sapiens, UniProt Q9NWZ3); test: IRAK4 Degradation Assay (Karpas299, HTRF/TR-FRET); conditions: Karpas-299 cells; for Dmax: maximum percentage of degradation
T1 construct: endogenous in cells; host or cells: Karpas299
T1 sequence (Q9NWZ3 1-460): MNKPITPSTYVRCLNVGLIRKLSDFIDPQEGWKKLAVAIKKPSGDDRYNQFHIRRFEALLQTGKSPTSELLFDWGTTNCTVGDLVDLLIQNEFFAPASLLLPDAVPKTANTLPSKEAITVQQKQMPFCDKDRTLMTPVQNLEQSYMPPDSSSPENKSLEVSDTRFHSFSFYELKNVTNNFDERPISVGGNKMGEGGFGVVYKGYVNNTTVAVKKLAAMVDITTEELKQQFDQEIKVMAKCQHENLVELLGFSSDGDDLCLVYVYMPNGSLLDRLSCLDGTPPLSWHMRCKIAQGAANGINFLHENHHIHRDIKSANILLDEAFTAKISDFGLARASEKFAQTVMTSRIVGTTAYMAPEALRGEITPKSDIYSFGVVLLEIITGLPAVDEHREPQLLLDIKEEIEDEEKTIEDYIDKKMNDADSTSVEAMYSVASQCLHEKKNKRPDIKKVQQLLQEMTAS
Method in brief: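 Karpas299 cells at 0.2 million per well were exposed to serially diluted compounds for 24 h or 5 h, then lysed. IRAK4 remaining in lysates was quantified by HTRF (665/620 nm) after overnight antibody incubation at room temperature. Percent degradation was fitted to a four-parameter curve to give IC50 (DC50).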

IRAK4 [2] = target: T1, IRAK4; test: IRAK4 Degradation Assay with Human Serum (Karpas299, HTRF/TR-FRET); conditions: Karpas-299 in human serum, 24 hrs treatment; for DC50: read-out: IRAK4 degradtion with human serum assay DC50; for Dmax: read-out: IRAK4 degradtion with human serum assay Dmax (%)
Method in brief: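 Karpas299 cells in human AB serum (0.2 million/well) treated with serial compound dilutions for 24 h. After lysis, IRAK4 quantified by HTRF (overnight antibody incubation at room temperature, 665/620 nm read). Degradation percentage fitted to four-parameter curve to give DC50.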

[3] = tested on: TNF-α production in THP-1 cells; test: TNF-α Production Assay in THP-1 Cells (LPS stimulated); conditions: Homo sapiens, THP-1, 24 h; for Emax: maximum inhibition, read-out: TNF-α (THP-1) 24 h IMax
Method in brief: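 Cells (0.2 million/well) pretreated with compounds for 24 h, then stimulated with LPS at 1 μg/mL final for 24 h. TNF-α in culture supernatant quantified by TR-FRET immunoassay.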

[4] = tested on: IL-6 production in human PBMC; test: IL-6 Production Assay in Human PBMC (LPS stimulated); conditions: Homo sapiens, 5 h; for Emax: maximum inhibition, read-out: IL-6 (PBMC) 5 h IMax
Method in brief: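 Thawed PBMC were rested overnight at 37 °C, seeded at 0.2 million cells/well and pretreated with compounds for 24 h. They were then stimulated with LPS at 10 ng/mL for 5 h. IL-6 in the supernatant was quantified by TR-FRET.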

[5] = 5 h treatment, read-out: IRAK4 in Karpas-299 (5 h) Dmax (%)
[6] = 5 h treatment, read-out: IRAK4 in Karpas-299 (5 h) DC50
[7] = 24 h treatment, read-out: IRAK4 in Karpas-299 (24 h) Dmax (%)
[8] = 24 h treatment, read-out: IRAK4 in Karpas-299 (24 h) DC50

Structure (SMILES) | Dmax (IRAK4 [1]; [5]) [%] | DC50 (IRAK4 [1]; [6]) [nM] | Dmax (IRAK4 [1]; [7]) [%] | DC50 (IRAK4 [1]; [8]) [nM] | DC50 (IRAK4 [2]) [nM] | Dmax (IRAK4 [2]) [%] | IC50 [3] [nM] | Emax [3] [%] | IC50 [4] [nM] | Emax [4] [%]
CC(C)(O)c1cc2nn([C@H]3CC[C@H](N4CCN([C@H]5C[C@H](c6cc(F)c([C@H]7CCC(=O)NC7=O)c(F)c6)C5)CC4)CC3)cc2cc1NC(=O)c1ccc2cc(C#N)cnn12 [Example 364, 3-cyano-N-(2-((1R,4r)-4-(4-((1R,3R)-3-(4-((R)-2,6-dioxopiperidin-3-yl)-3,5-difluorophenyl)cyclobutyl)piperazin-1-yl)cyclohexyl)-6-(2-hydroxypropan-2-yl)-2H-indazol-5-yl)pyrrolo[1,2-b]pyridazine-7-carboxamide] | 96 | 0.8 | 96 | 1.3 | 4.6 | 99 | 14 | 98 | 0.6 | 74
CC(C)(O)c1cc2nn([C@H]3CC[C@H](N4CCN(C5CN(c6cc(F)c([C@H]7CCC(=O)NC7=O)c(F)c6)C5)CC4)CC3)cc2cc1NC(=O)c1ccc2cc(C#N)cnn12 [Example 110, 3-cyano-N-(2-((1R,4r)-4-(4-(1-(4-((R)-2,6-dioxopiperidin-3-yl)-3,5-difluorophenyl)azetidin-3-yl)piperazin-1-yl)cyclohexyl)-6-(2-hydroxypropan-2-yl)-2H-indazol-5-yl)pyrrolo[1,2-b]pyridazine-7-carboxamide] | 94 | 1.1 | 98 | 0.8 | 8.3 | 100 | 27 | 83 | 1.5 | 63
